Source: patent US7902179B2, “Heterocyclic compounds” (Ajinomoto Co., Inc., priority 2001, dated 2011)

system: TNF-α production from mouse peritoneal macrophage; assay: Inhibition of TNF-α production from mouse peritoneal macrophage (LPS stimulation, ELISA); type: cell-based; details: ICR mouse peritoneal cells, GM-CSF and IFN-γ 10 ng/ml, LPS 5 ng/ml, cultured 16 hrs, 50% suppression of TNF-α amount, read-out: IC50 (μM) Mo-TNF
Protocol: Test for TNF-α Production or Inhibition of TNF-α Production from Mouse Peritoneal Macrophage Peritoneal cells were recovered from the peritoneal cavity of ICR mice (male, 5-7 weeks of age, Charles River) and sown in a 96-well half plate (Costar 3696) at a density of 1×10^5 cells per well. As the medium, RPMI-1640 containing 10% fetal calf serum was used and, using this medium, each reagent was prepared. Mouse GM-CSF (Peprotech) and mouse IFN-γ (Peprotech) were respectively added at a final concentration of 10 ng/ml, lipopolysaccharide (E. coli 0111: B4 LPS, DIFCO, lot 99078) was added at a final concentration of 5 ng/ml, and the compound of the present invention was added at 8 steps of dilution series by 3-fold dilution from the final concentration (300 μM), and cultured for 16 hrs. The concentration of TNF-α secreted into the culture supernatant was determined using a mouse TNF-α ELISA quantitative determination kit (Pharmingen, #2673KI) and the absorbance at 450 nm was measured using a V-max kinetic microplate reader (Molecular Devices). The concentration of the compound necessary for 50% suppression of TNF-α amount produced by lipopolysaccharide stimulation was taken as IC50 (μM).

Compared with `Cc1ccc(-n2nc3c(c2N)C(=O)NC(=O)C3)cc1` [Example 5], `Nc1c2c(nn1-c1ccc(Cl)cc1)CC(=O)NC2=O` [Example 12] is 2-fold lower in IC50: 23.9 µM for the first, 11.8 µM for the second.

`Nc1c2c(nn1-c1cccc(F)c1)CC(=O)NC2=O` [Example 9] and `Nc1c2c(nn1-c1cccc(Cl)c1)CC(=O)NC2=O` [Example 11] are within 1.5-fold of each other in IC50: 18 µM for the first, 15.2 µM for the second.

Going from `Nc1c2c(nn1-c1ccc([N+](=O)[O-])cc1)CC(=O)NC2=O` [Example 10] to `Nc1c2c(nn1-c1ccc(F)cc1)CC(=O)NC2=O` [Example 124], the IC50 falls from 22.9 µM to 9.4 µM (2.4-fold).

`Nc1c2c(nn1-c1ccccn1)CC(=O)NC2=O` [Example 13] and `Nc1c2c(nn1-c1ccccc1)CC(=O)NC2=O` [Example 21] are within 1.5-fold of each other in IC50: 5 µM for the first, 3.5 µM for the second.

`Cc1cccc(-n2nc3c(c2N)C(=O)NC(=O)C3)c1` [Example 14] and `COc1cccc(-n2nc3c(c2N)C(=O)NC(=O)C3)c1` [Example 16] are within 1.5-fold of each other in IC50: 27.3 µM for the first, 20.1 µM for the second.

First: Nc1c2c(nn1-c1c(Cl)cccc1Cl)CC(=O)NC2=O [Example 19]
Second: Nc1c2c(nn1-c1ccccc1O)CC(=O)NC2=O [Example 153]
The IC50 of the first is 3.6-fold higher: 32.8 µM for the first, 9 µM for the second.

Compared with `O=C1Cc2nn(-c3ccccc3)cc2C(=O)N1` [Example 25], `O=C1Cc2nn(-c3ccccc3)c(Br)c2C(=O)N1` [Example 26] is 1.9-fold lower in IC50: 28 µM for the first, 15.1 µM for the second.

First: O=C1Cc2nn(-c3ccccc3)c(I)c2C(=O)N1 [Example 27]
Second: O=C1Cc2nn(-c3ccccc3)c(N3CCCC3)c2C(=O)N1 [Example 186]
The IC50 of the first is 1.9-fold higher: 28.3 µM for the first, 14.7 µM for the second.

`O=C1Cc2nn(-c3ccccc3)c(Sc3ccccc3)c2C(=O)N1` [Example 33] and `O=C1Cc2nn(-c3ccccc3)c(-c3ccncc3)c2C(=O)N1` [Example 190] are within 1.5-fold of each other in IC50: 79.1 µM for the first, 77.3 µM for the second.

Going from `COC(=O)CCn1nc2c(c1N)C(=O)NC(=O)C2` [Example 36] to `CCCCCCn1nc2c(c1N)C(=O)NC(=O)C2` [Example 164], the IC50 falls from 80.5 µM to 2.1 µM (38-fold). The second is the more potent here.

Going from `Nc1c2c(nn1-c1ccccc1)/C(=C\c1ccc(O)cc1)C(=O)NC2=O` [Example 46] to `Nc1ccc(/C=C2/C(=O)NC(=O)c3c2nn(-c2ccccc2)c3N)cc1` [Example 55], the IC50 falls from 23.7 µM to 6.1 µM (3.9-fold).

First: Cc1ccccc1/C=C1/C(=O)NC(=O)c2c1nn(-c1ccccc1)c2N [Example 49]
Second: COc1ccccc1/C=C1/C(=O)NC(=O)c2c1nn(-c1ccccc1)c2N [Example 71]
The IC50 of the first is 7.3-fold higher: 32.7 µM for the first, 4.5 µM for the second. The second is the more potent here.

Compared with `CC(C)c1ccc(/C=C2/C(=O)NC(=O)c3c2nn(-c2ccccc2)c3N)cc1` [Example 52], `Nc1c2c(nn1-c1ccccc1)/C(=C\c1ccc(C(=O)O)cc1)C(=O)NC2=O` [Example 60] is 2.3-fold lower in IC50: 8.6 µM for the first, 3.7 µM for the second. The second is the more potent here.

`CC(=O)Nc1ccc(/C=C2/C(=O)NC(=O)c3c2nn(-c2ccccc2)c3N)cc1` [Example 53] and `Nc1c2c(nn1-c1ccccc1)/C(=C\c1cccc(O)c1)C(=O)NC2=O` [Example 57] are within 1.5-fold of each other in IC50: 7.9 µM for the first, 7.8 µM for the second.

Going from `Nc1c2c(nn1-c1ccccc1)/C(=C\c1ccc(O)c(O)c1)C(=O)NC2=O` [Example 56] to `COc1cccc(/C=C2/C(=O)NC(=O)c3c2nn(-c2ccccc2)c3N)c1` [Example 72], the IC50 rises from 3.3 µM to 80.5 µM (24-fold).

First: Cn1ccnc1/C=C1/C(=O)NC(=O)c2c1nn(-c1ccccc1)c2N [Example 64]
Second: C/C=C1/C(=O)NC(=O)c2c1nn(-c1ccccc1)c2N [Example 86]
The IC50 of the first is 2.8-fold lower: 3.5 µM for the first, 9.7 µM for the second. The first is the more potent here.

First: Nc1c2c(nn1-c1ccccc1)/C(=C\C1=COc3ccc(O)cc3C1)C(=O)NC2=O [Example 66]
Second: Nc1c2c(nn1-c1ccccc1)/C(=C\c1cccs1)C(=O)NC2=O [Example 82]
The IC50 of the first is 22-fold lower: 3.5 µM for the first, 78.5 µM for the second.

`COc1cccc(OC)c1/C=C1/C(=O)NC(=O)c2c1nn(-c1ccccc1)c2N` [Example 73] and `COc1cc(OC)c(/C=C2/C(=O)NC(=O)c3c2nn(-c2ccccc2)c3N)c(OC)c1` [Example 74] are within 1.5-fold of each other in IC50: 5.6 µM for the first, 4.4 µM for the second.

`CCC/C=C1/C(=O)NC(=O)c2c1nn(-c1ccccc1)c2N` [Example 77] and `CSCC/C=C1/C(=O)NC(=O)c2c1nn(-c1ccccc1)c2N` [Example 78] are within 1.5-fold of each other in IC50: 14.7 µM for the first, 10.6 µM for the second.

First: Nc1c2c(nn1-c1ccccc1)/C(=C\c1ccco1)C(=O)NC2=O [Example 83]
Second: CC(C)=C1C(=O)NC(=O)c2c1nn(-c1ccccc1)c2N [Example 135]
The IC50 of the first is 11-fold higher: 93.2 µM for the first, 8.3 µM for the second.

First: CC/C(C)=C1/C(=O)NC(=O)c2c1nn(-c1ccccc1)c2N [Example 88]
Second: CCOC(=O)/C(C)=C1\C(=O)NC(=O)c2c1nn(-c1ccccc1)c2N [Example 136]
The IC50 of the first is 2.3-fold higher: 9.9 µM for the first, 4.3 µM for the second. The second is the more potent here.

`Nc1c2c(nn1-c1ccccc1)C(=C1CCOCC1)C(=O)NC2=O` [Example 92] and `CO/N=C1/C(=O)NC(=O)c2c1nn(-c1ccccc1)c2N` [Example 143] are within 1.5-fold of each other in IC50: 31.9 µM for the first, 26.2 µM for the second.

Going from `Nc1c2c(nn1-c1ccccc1)C1(CC1)C(=O)NC2=O` [Example 98] to `CCOC(=O)C(C)C1C(=O)NC(=O)c2c1nn(-c1ccccc1)c2N` (centres unmarked) [Example 149], the IC50 rises from 18.4 µM to 99.7 µM (5.4-fold).

First: Cn1nc2c(c1NCc1cccc(O)c1)C(=O)NC(=O)C2 [Example 112]
Second: Nc1c2c(nn1Cc1ccccc1O)CC(=O)NC2=O [Example 170]
The IC50 of the first is 6.2-fold higher: 82.2 µM for the first, 13.2 µM for the second.

First: Nc1c2c(nn1-c1c(F)c(F)c(F)c(F)c1F)CC(=O)NC2=O [Example 125]
Second: Nc1c2c(nn1-c1ccccc1)/C(=C\c1c(F)c(F)c(F)c(F)c1F)C(=O)NC2=O [Example 133]
The IC50 of the first is 36-fold higher: 10.8 µM for the first, 0.3 µM for the second.

`CCOC(=O)Nc1cccc(-n2nc3c(c2N)C(=O)NC(=O)C3)c1` [Example 129] and `Nc1c2c(nn1Cc1ccccc1I)CC(=O)NC2=O` [Example 180] are within 1.5-fold of each other in IC50: 8.4 µM for the first, 8.7 µM for the second.

Going from `CCC(CC)n1nc2c(c1N)C(=O)NC(=O)C2` [Example 158] to `CCCC(CCC)n1nc2c(c1N)C(=O)NC(=O)C2` [Example 162], the IC50 rises from 5.8 µM to 13 µM (2.2-fold).

Going from `Nc1c2c(nn1C1CCOCC1)CC(=O)NC2=O` [Example 159] to `Nc1c2c(nn1C1CCCC1)CC(=O)NC2=O` [Example 161], the IC50 falls from 26.9 µM to 10.9 µM (2.5-fold). The second is the more potent here.

First: Nc1c2c(nn1CC1CCCCC1)CC(=O)NC2=O [Example 160]
Second: CC1(C)CCC(n2nc3c(c2N)C(=O)NC(=O)C3)CC1 [Example 163]
The IC50 of the first is 23-fold higher: 60.3 µM for the first, 2.6 µM for the second.

Compared with `CCC(CC)Cn1nc2c(c1N)C(=O)NC(=O)C2` [Example 167], `Nc1c2c(nn1Cc1cccnc1)CC(=O)NC2=O` [Example 176] is 7.7-fold lower in IC50: 26.8 µM for the first, 3.5 µM for the second.

Going from `Nc1c2c(nn1Cc1cccc3ccccc13)CC(=O)NC2=O` [Example 172] to `O=C1Cc2nn(-c3ccccc3)c(NC3CCCCC3)c2C(=O)N1` [Example 187], the IC50 falls from 83.1 µM to 16.6 µM (5-fold).
